# PMC4222444, “Characterization of Plp, a phosphatidylcholine-specific phospholipase and hemolysin of Vibrio anguillarum” (BMC Microbiology, 2013)
# Biological target: rPlp (Plp) (Vibrio anguillarum, UniProt Q4ZHV5)
# Test: TLC with fluorescence scanning of BODIPY-lysophosphatidylcholine formation
# Format: biochemical
# Settings: 20 uM substrate stock mixed 1:1 with enzyme; rPlp routinely 4 ug/ml; no divalent metal needed; labelled compound
# Sequence of rPlp (Plp) (Q4ZHV5 1-416 limits assumed): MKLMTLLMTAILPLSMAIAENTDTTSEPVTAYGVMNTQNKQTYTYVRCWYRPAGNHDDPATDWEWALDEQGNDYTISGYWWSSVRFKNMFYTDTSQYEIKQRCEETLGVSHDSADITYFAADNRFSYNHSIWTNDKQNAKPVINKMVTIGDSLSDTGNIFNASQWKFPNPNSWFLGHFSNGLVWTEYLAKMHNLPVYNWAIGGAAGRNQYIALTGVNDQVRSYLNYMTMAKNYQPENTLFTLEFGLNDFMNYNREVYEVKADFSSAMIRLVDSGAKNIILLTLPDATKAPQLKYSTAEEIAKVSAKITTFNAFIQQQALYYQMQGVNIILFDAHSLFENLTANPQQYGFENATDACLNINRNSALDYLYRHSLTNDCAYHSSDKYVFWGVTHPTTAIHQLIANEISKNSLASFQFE
compound,measurement,value
"CCCCCCCCCC(=O)O[C@H](COCCCCCCCCCCCNC(=O)CCc1ccc2n1[B-](F)(F)[N+]1=C(C)C=C(C)C1=C2)COP(=O)([O-])OCC[N+](C)(C)C [BPC, 2-decanoyl-1-(O-(11-(4,4-difluoro-5,7-dimethyl-4-bora-3a,4a-diaza-s-indacene-3-propionyl)amino)undecyl)-sn-glycero-3-phosphocholine]",TLC with fluorescence scanning of BODIPY-lysophosphatidylcholine formation,"rPlp exhibited high activity against phosphatidylcholine, cleaving BPC to yield BLPC and free fatty acid"
